Experimental data published in article PMC5053896 (Journal of the American Chemical Society, 2016).
≈ marks a conversion by molar mass, not a printed value. Read-outs that look alike come from different tables or passages of the source.

What was measured:
Staphylococcus aureus = Staphylococcus aureus infected mice; cited from earlier work
[1] = tested on: Gram-positive and Gram-negative bacteria; conditions: both Gram-positive and Gram-negative bacteria; cited from earlier work
[2] = molecular target: WecA (polyprenyl phosphate-GlcNAc-1-phosphate transferase) (Mycobacterium tuberculosis, UniProt P9WMW5); format: biochemical, M. tuberculosis; conditions: for IC50: read-out: WecA inhibition IC50
M. tuberculosis = M. tuberculosis growth inhibition, microdilution broth method; format: cell-based; conditions: for M. tuberculosis growth inhibition MIC50: microdilution broth method
MraY = conditions: read-out: MraY enzyme inhibitory activity IC50; cited from earlier work
bacteria = conditions: cited from earlier work
MurX = MurX (Mycobacterium tuberculosis, UniProt P9WMW7); test: biochemical; format: biochemical, M. tuberculosis

Molecule: CO[C@H]1[C@H](O[C@H]([C@H]2O[C@@H](n3ccc(=O)[nH]c3=O)[C@H](O)[C@@H]2O)[C@H](NCCCNC(=O)[C@@H](NC(=O)[C@@H](NC(=O)N[C@H](C(=O)O)C(C)C)[C@@H]2CCN=C(N)N2)[C@@H](OC(=O)CCCCCCCCCCCCN(O)C(=N)N)C(C)C)C(=O)O)O[C@H](CN)[C@H]1O [Muraymycin A1]
- ED50 (Staphylococcus aureus): 1.1 mg/kg
- bactericidal activity [1]: bactericidal activity

Molecule: COC1C(C(OC2OC(C(=O)NC3CCCCNC3=O)=CC(O)C2O)C(N)=O)OC(n2ccc(=O)[nH]c2=O)C1OC (stereo not shown) [UT-01320]
- IC50 [2]: 0.06 µM
- M. tuberculosis growth inhibition MIC50 (M. tuberculosis): 1.56 µg/mL

Molecule: Muraymycin D1-amide [Muraymycin D1-amide (2)]
- M. tuberculosis growth inhibition MIC50 (M. tuberculosis): 1.56 µg/mL
- M. tuberculosis growth inhibition MIC50 (M. tuberculosis; listed as 2): 1.56 to 6.25 µg/mL

Molecule: CC(C)C[C@H](NC(=O)[C@@H](NC(=O)N[C@H](C(=O)O)C(C)C)[C@@H]1CCN=C(N)N1)C(=O)NCCCN[C@H](C(=O)O)[C@H](O[C@@H]1O[C@H](CN)[C@@H](O)[C@H]1O)[C@H]1O[C@@H](n2ccc(=O)[nH]c2=O)[C@H](O)[C@@H]1O [muraymycin D2]
- IC50 (MraY): 0.01 µM
- antibacterial activity (bacteria): no significant antibacterial activity

Molecule: CO[C@H]1[C@H](O[C@H]([C@H]2O[C@@H](n3ccc(=O)[nH]c3=O)[C@H](O)[C@@H]2O)[C@H](NCCCNC(=O)[C@H](CC(C)C)NC(=O)[C@@H](NC(=O)N[C@H](C(=O)O)C(C)C)[C@@H]2CCN=C(N)N2)C(=O)O)O[C@H](CN)[C@H]1O [Muraymycin D1 (1), Muraymycin D1]
- IC50 [2]: 0.69 µM
- M. tuberculosis growth inhibition MIC50 (M. tuberculosis): 1.56 µg/mL
- M. tuberculosis growth inhibition MIC50 (M. tuberculosis; listed as 1): 1.56 to 6.25 µg/mL

Molecule: Muraymycin D1-diamide [Muraymycin D1-diamide (3)]
- Inhibition of WecA enzyme relative to 1 and 2 [2]: ~ 10 times
- M. tuberculosis growth inhibition MIC50 (M. tuberculosis): 6.25 µg/mL
- M. tuberculosis growth inhibition MIC50 (M. tuberculosis; listed as 3): 1.56 to 6.25 µg/mL

Molecule: CO[C@H]1[C@@H](O)[C@H](n2ccc(=O)[nH]c2=O)O[C@@H]1[C@@H](O[C@H]1OC(C(=O)N[C@H]2CCCCNC2=O)=C[C@H](O)[C@@H]1O)C(N)=O [Capuramycin]
- IC50 (MurX): 0.22 µM
- MIC50 (M. tuberculosis; Mycobacterium tuberculosis, read-out: M. tuberculosis growth inhibition MIC50): 6.25 µg/mL (≈ 11 µM)

Molecule: Tunicamycin
- IC50 [2]: 0.15 µM
- IC50 (MurX; read-out: MurX inhibition IC50): 3.38 µM
- M. tuberculosis growth inhibition MIC50 (M. tuberculosis): 3.13 µg/mL
